For 16 compounds, TGI and GI50 results are on record in PubChem BioAssay (NCI).

SMILES strings stand for the structures.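 Test compounds were applied to cells in 96-well plates for 48 hours at 5 doses. The concentration for 50% growth inhibition is given as GI50. TGI is the concentration that stops growth completely.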

The first experiment deals with U251 CNS. Briefly: NCI-60 cell line screen, 48 h.
On to `O=C(Cl)C1=C(c2ccccc2)C1c1ccccc1` (configuration not stated), for which the TGI was > 100 µM.

With `O=C(/C=C/c1cccc(O)c1)c1cccc(-n2cc(-c3ccc4ccccc4c3)[nH]c2=O)c1`, the GI50 is 1.09 µM and the TGI worked out at 2.28 µM.

As to `Cc1cc(C)n(C2=NS(=O)(=O)c3ccccc3N2C)n1`, the TGI is > 100 µM.

For `COc1cccc2c(=O)c3c(sc12)c(NCCCNCCO)nc1ccccc13`, the GI50 is 1.53 µM and the TGI was determined as 3.02 µM.

Take `CSc1ccc(N(C)c2nc(C)nc3c2CCC3)cc1`: the GI50 was < 0.01 µM and the TGI is > 100 µM.

Turning to `Clc1ccc2c(c1)N(c1ncnc3ccc(-c4cnc5[nH]ncc5c4)cc13)CC2`, the GI50 is 9.79 µM and the TGI was > 100 µM.

For the compound `COc1ccc(-c2cnoc2-c2cc(OC)c3c(c2)OCCO3)cc1`, the GI50 was 0.0521 µM and the TGI is > 100 µM.

Take `COc1c(O)c(OC)c2oc(-c3ccc(O)cc3)c(OC)c(=O)c2c1O`: the TGI is > 100 µM.

As for `CC1(C)CC(=O)C(CC2C(=O)c3ccccc3C2=O)C(=O)C1`, the TGI is > 100 µM.

For `CCOC(=O)N1CCN(CCCCCOc2ccccc2C2CCCCC2)CC1`, the GI50 was 5.05 µM and the TGI was found to be 19 µM.

On to `CC(C)(C)NCC(COc1ccc([N+](=O)[O-])cc1)OP(c1ccccc1)c1ccccc1` (configuration not stated), for which the TGI is > 100 µM.

On to `CCCCCCCCCCCCCC[n+]1cccc(C(N)=O)c1`, for which the GI50 is 0.652 µM and the TGI was 2.11 µM.

For `O=C(NCCN1CCNCC1)c1ccc(Nc2nc3ccccc3c3occc23)cc1`, the GI50 was 17.9 µM and the TGI turned out to be 33.1 µM.

`COc1cc(C2c3cc4c(cc3[C@@H](Nc3ccc5c(c3)OCCO5)C3COC(=O)[C@H]23)OCO4)cc(OC)c1O` (some centres not stated) returned a TGI of 8.26 µM.

Regarding `Cn1c(=O)nc2n(-c3ccc(Cl)c(C(F)(F)F)c3)c3ccccc3nc-2c1=O`, the TGI is > 100 µM.

Turning to `Cc1nc(-c2cccnc2)sc1C(=O)/C=C/c1cccc([N+](=O)[O-])c1`, the TGI is > 100 µM.

For the next experiment, the system named is NCI-H460 lung. Put plainly: NCI-60 cell line screen, 48 h.
In the case of `O=C(Cl)C1=C(c2ccccc2)C1c1ccccc1` (configuration not stated), the TGI was > 100 µM.

On to `O=C(/C=C/c1cccc(O)c1)c1cccc(-n2cc(-c3ccc4ccccc4c3)[nH]c2=O)c1`, for which the GI50 was 1.67 µM and the TGI came to 3.19 µM.

For `Cc1cc(C)n(C2=NS(=O)(=O)c3ccccc3N2C)n1`, the TGI is > 100 µM.

Turning to `COc1cccc2c(=O)c3c(sc12)c(NCCCNCCO)nc1ccccc13`, the GI50 is 1.54 µM and the TGI came to 3.15 µM.

On to `CSc1ccc(N(C)c2nc(C)nc3c2CCC3)cc1`, for which the GI50 was < 0.01 µM and the TGI came out at 19 µM.

Turning to `Clc1ccc2c(c1)N(c1ncnc3ccc(-c4cnc5[nH]ncc5c4)cc13)CC2`, the GI50 is 0.463 µM and the TGI is > 100 µM.

Turning to `COc1ccc(-c2cnoc2-c2cc(OC)c3c(c2)OCCO3)cc1`, the GI50 is 0.0327 µM and the TGI was 12.8 µM.

In the case of `COc1c(O)c(OC)c2oc(-c3ccc(O)cc3)c(OC)c(=O)c2c1O`, the TGI is > 100 µM.

For the compound `CC1(C)CC(=O)C(CC2C(=O)c3ccccc3C2=O)C(=O)C1`, the TGI is > 100 µM.

Regarding `CCOC(=O)N1CCN(CCCCCOc2ccccc2C2CCCCC2)CC1`, the GI50 is 5 µM and the TGI was 17.7 µM.

Take `CC(C)(C)NCC(COc1ccc([N+](=O)[O-])cc1)OP(c1ccccc1)c1ccccc1` (configuration not stated): the TGI is > 100 µM.

Regarding `CCCCCCCCCCCCCC[n+]1cccc(C(N)=O)c1`, the GI50 was 3.09 µM and the TGI is 10.9 µM.

Consider `O=C(NCCN1CCNCC1)c1ccc(Nc2nc3ccccc3c3occc23)cc1`, for which the GI50 was 17.4 µM and the TGI was > 100 µM.

For the compound `COc1cc(C2c3cc4c(cc3[C@@H](Nc3ccc5c(c3)OCCO5)C3COC(=O)[C@H]23)OCO4)cc(OC)c1O` (some centres not stated), the TGI worked out at 2.23 µM.

As to `Cn1c(=O)nc2n(-c3ccc(Cl)c(C(F)(F)F)c3)c3ccccc3nc-2c1=O`, the TGI was > 100 µM.

`Cc1nc(-c2cccnc2)sc1C(=O)/C=C/c1cccc([N+](=O)[O-])c1`: the TGI is > 100 µM.

The next experiment relates to TK-10 renal. Briefly: NCI-60 cell line screen, 48 h.
`O=C(Cl)C1=C(c2ccccc2)C1c1ccccc1` (configuration not stated): the TGI was > 100 µM.

Take `O=C(/C=C/c1cccc(O)c1)c1cccc(-n2cc(-c3ccc4ccccc4c3)[nH]c2=O)c1`: the GI50 was 3.45 µM and the TGI stood at 8.53 µM.

As for `Cc1cc(C)n(C2=NS(=O)(=O)c3ccccc3N2C)n1`, the TGI is > 100 µM.

Regarding `Clc1ccc2c(c1)N(c1ncnc3ccc(-c4cnc5[nH]ncc5c4)cc13)CC2`, the GI50 was 0.835 µM and the TGI was > 100 µM.

`COc1ccc(-c2cnoc2-c2cc(OC)c3c(c2)OCCO3)cc1`: the GI50 is 16.7 µM and the TGI was > 100 µM.

For `COc1c(O)c(OC)c2oc(-c3ccc(O)cc3)c(OC)c(=O)c2c1O`, the TGI is > 100 µM.

Consider `CC1(C)CC(=O)C(CC2C(=O)c3ccccc3C2=O)C(=O)C1`, for which the TGI is > 100 µM.

For `CCOC(=O)N1CCN(CCCCCOc2ccccc2C2CCCCC2)CC1`, the GI50 was 7.99 µM and the TGI turned out to be 21.7 µM.

In the case of `CC(C)(C)NCC(COc1ccc([N+](=O)[O-])cc1)OP(c1ccccc1)c1ccccc1` (configuration not stated), the TGI is > 100 µM.

For `CCCCCCCCCCCCCC[n+]1cccc(C(N)=O)c1`, the GI50 was 0.675 µM and the TGI worked out at 2.02 µM.

Take `O=C(NCCN1CCNCC1)c1ccc(Nc2nc3ccccc3c3occc23)cc1`: the GI50 was 18.3 µM and the TGI came out at 35.2 µM.

In the case of `COc1cc(C2c3cc4c(cc3[C@@H](Nc3ccc5c(c3)OCCO5)C3COC(=O)[C@H]23)OCO4)cc(OC)c1O` (some centres not stated), the TGI stood at 11.6 µM.

With `Cn1c(=O)nc2n(-c3ccc(Cl)c(C(F)(F)F)c3)c3ccccc3nc-2c1=O`, the TGI was > 100 µM.

For `Cc1nc(-c2cccnc2)sc1C(=O)/C=C/c1cccc([N+](=O)[O-])c1`, the TGI was > 100 µM.

In a further experiment the test system is OVCAR-5 ovarian. Put plainly: NCI-60 cell line screen, 48 h.
`O=C(Cl)C1=C(c2ccccc2)C1c1ccccc1` (configuration not stated): the TGI is > 100 µM.

Consider `O=C(/C=C/c1cccc(O)c1)c1cccc(-n2cc(-c3ccc4ccccc4c3)[nH]c2=O)c1`, for which the GI50 was 1.89 µM and the TGI turned out to be 3.6 µM.

In the case of `Cc1cc(C)n(C2=NS(=O)(=O)c3ccccc3N2C)n1`, the TGI is > 100 µM.

Turning to `COc1cccc2c(=O)c3c(sc12)c(NCCCNCCO)nc1ccccc13`, the GI50 is 1.58 µM and the TGI is 3.16 µM.

Regarding `CSc1ccc(N(C)c2nc(C)nc3c2CCC3)cc1`, the GI50 is 1.23 µM and the TGI is > 100 µM.

With `Clc1ccc2c(c1)N(c1ncnc3ccc(-c4cnc5[nH]ncc5c4)cc13)CC2`, the GI50 was 0.396 µM and the TGI is > 100 µM.

In the case of `COc1ccc(-c2cnoc2-c2cc(OC)c3c(c2)OCCO3)cc1`, the GI50 was 0.0617 µM and the TGI is > 86.7 µM.

As to `COc1c(O)c(OC)c2oc(-c3ccc(O)cc3)c(OC)c(=O)c2c1O`, the TGI was > 100 µM.

For `CC1(C)CC(=O)C(CC2C(=O)c3ccccc3C2=O)C(=O)C1`, the TGI was > 100 µM.

For the compound `CC(C)(C)NCC(COc1ccc([N+](=O)[O-])cc1)OP(c1ccccc1)c1ccccc1` (configuration not stated), the TGI is > 100 µM.

`CCCCCCCCCCCCCC[n+]1cccc(C(N)=O)c1`: the GI50 is 1.62 µM and the TGI worked out at 6.25 µM.

On to `O=C(NCCN1CCNCC1)c1ccc(Nc2nc3ccccc3c3occc23)cc1`, for which the GI50 is 15 µM and the TGI is 29.5 µM.

For `COc1cc(C2c3cc4c(cc3[C@@H](Nc3ccc5c(c3)OCCO5)C3COC(=O)[C@H]23)OCO4)cc(OC)c1O` (some centres not stated), the TGI stood at 16.6 µM.

For the compound `Cn1c(=O)nc2n(-c3ccc(Cl)c(C(F)(F)F)c3)c3ccccc3nc-2c1=O`, the TGI is > 100 µM.

With `Cc1nc(-c2cccnc2)sc1C(=O)/C=C/c1cccc([N+](=O)[O-])c1`, the TGI is > 100 µM.

In another experiment the test system is RXF 393 renal. Briefly: NCI-60 cell line screen, 48 h.
Turning to `O=C(Cl)C1=C(c2ccccc2)C1c1ccccc1` (configuration not stated), the TGI was > 100 µM.

For the compound `O=C(/C=C/c1cccc(O)c1)c1cccc(-n2cc(-c3ccc4ccccc4c3)[nH]c2=O)c1`, the GI50 was 1.41 µM and the TGI was determined as 3.07 µM.

For the compound `Cc1cc(C)n(C2=NS(=O)(=O)c3ccccc3N2C)n1`, the TGI was > 100 µM.

Take `COc1cccc2c(=O)c3c(sc12)c(NCCCNCCO)nc1ccccc13`: the GI50 was 1.46 µM and the TGI turned out to be 2.84 µM.

With `CSc1ccc(N(C)c2nc(C)nc3c2CCC3)cc1`, the GI50 is < 0.01 µM and the TGI was > 100 µM.

On to `Clc1ccc2c(c1)N(c1ncnc3ccc(-c4cnc5[nH]ncc5c4)cc13)CC2`, for which the GI50 was 0.229 µM and the TGI amounted to 0.97 µM.

Take `CC1(C)CC(=O)C(CC2C(=O)c3ccccc3C2=O)C(=O)C1`: the TGI was > 100 µM.

As for `CC(C)(C)NCC(COc1ccc([N+](=O)[O-])cc1)OP(c1ccccc1)c1ccccc1` (configuration not stated), the TGI is > 100 µM.

Regarding `O=C(NCCN1CCNCC1)c1ccc(Nc2nc3ccccc3c3occc23)cc1`, the GI50 was 6.92 µM and the TGI was determined as 26.4 µM.

In turn, `COc1cc(C2c3cc4c(cc3[C@@H](Nc3ccc5c(c3)OCCO5)C3COC(=O)[C@H]23)OCO4)cc(OC)c1O` (some centres not stated) yielded a TGI of 4.64 µM.

`Cn1c(=O)nc2n(-c3ccc(Cl)c(C(F)(F)F)c3)c3ccccc3nc-2c1=O`: the TGI is > 100 µM.

Turning to `Cc1nc(-c2cccnc2)sc1C(=O)/C=C/c1cccc([N+](=O)[O-])c1`, the TGI was > 100 µM.
